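How tested: cells in 96-well plates exposed to compound for 48 hours at five concentrations. The concentration for 50% growth inhibition is given as GI50. TGI denotes the concentration required for complete inhibition of growth.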 Where only a bound is given, the exact number is not on record here.

In PubChem BioAssay (NCI) one finds TGI and GI50 data, which are given here for 30 compounds.

Experiment in all cases: NCI-60 cell line screen, 48 h
Assay [1] concerns EKVX NSCLC.
The test system of assay [2] is HT29 colon.
For assay [3], the system named is NCI-H226 lung.
For assay [4], the system named is NCI-H522 lung.
Assay [5] deals with OVCAR-3 ovarian.
The test system of assay [6] is OVCAR-8 ovarian.
Assay [7] relates to RPMI-8226 leukemia.
Assay [8] has as its system SK-MEL-2 melanoma.
The test system of assay [9] is UACC-257 melanoma.

Turning to `Nc1ccn(CC(CO)CC(c2ccccc2)P(=O)(O)O)c(=O)n1` (centres undefined), the TGI in assay [1], in assay [2], in [3], in assay [4], in [5] and in assay [6] was > 100 µM each time. Also, the TGI in assay [7], in [8] and in assay [9] was > 100 µM throughout.

`COc1ccc2cc(C(=O)/C=C/c3ccco3)ccc2c1`: the GI50 in assay [1] is 6.33 µM; in [2] it was 42.5 µM; in assay [4] it was 19.7 µM; in [5] it was 44 µM; in [6], 34.2 µM; in assay [7] it was 32 µM. The GI50 was 21.6 µM in assay [8] and 26.1 µM in assay [9]. In addition, the TGI in assay [1] was 26.2 µM; in assay [2], > 100 µM; in [4] it was 58.5 µM; in [5], > 100 µM; in [6], > 100 µM; in assay [7] it was 99.3 µM. The TGI came out at 59.1 µM in assay [8] and 59.6 µM in [9].

As for `CCN1C(=O)C(N=[N+]=[N-])(c2ccccc2)C(=O)c2ccccc21` (centres undefined), the TGI in [1], in assay [2], in [3], in assay [4], in assay [5] and in [7] was > 100 µM throughout. Further, the TGI in [8] and in assay [9] was > 100 µM each time.

Take `CC(C(=O)N1C(=O)N(C(=O)[C@H](C)C(O)c2ccccc2)[C@H](c2ccccc2)[C@H]1c1ccccc1)[C@@H](O)c1ccccc1` (some centres undefined): the TGI in assay [1] was 93.4 µM; in [2], > 100 µM; in [3], > 100 µM; in assay [4], > 100 µM; in [6], > 100 µM; in assay [8] it was 42.6 µM. This compound also came in with a TGI in assay [9] of 84.4 µM.

As for `COC(=O)C(C(=O)C(=O)Nc1ccc([N+](=O)[O-])cc1)c1nc2cc(C)c(C)cc2[nH]c1=O` (centres undefined), the TGI in assay [1], in [2], in [3], in assay [4], in assay [5] and in [7] was > 100 µM in each case. For the same compound, the TGI in [9] was > 100 µM.

On to `CCOC(=O)/C(=C/c1ccc(Cl)cc1)N(CC)CC`, for which the TGI in assay [1], in assay [2], in assay [3], in [4], in [6] and in assay [7] was > 100 µM in each case. Further, the TGI in [8] and in [9] was > 100 µM in each case.

In the case of `CCOC(=O)NN(C(=O)OCC)C(C(=O)c1ccc(Cl)cc1)=C1NCCN1`, the TGI in assay [1], in [2], in [3], in [4], in assay [5] and in [6] was > 100 µM each time. Also, the TGI in assay [8] and in [9] was > 100 µM each time.

On to `CC1=C2[C@@H](c3ccccc3)C3C=CC2(c2ccccc23)N(C(=O)Nc2cccc3ccccc23)C1=O` (some centres undefined), for which the TGI in assay [1], in assay [5], in assay [6], in assay [7] and in assay [9] was > 100 µM in each case.

Regarding `CCOC1=C2C(C)(CCC3[C@@]4(C)C=CC(=O)C(C)(C)C4CC(O)[C@@]23C)C(c2ccoc2)C1=O` (some centres undefined), the TGI in assay [1] came to 67.7 µM; in assay [2] it was 29.2 µM; in assay [3], 55.4 µM; in assay [5], 33.4 µM; in assay [6], 44.3 µM; in assay [7], 49.8 µM. The values for the TGI in assay [8] and in assay [9] were 43.4 µM and 99.3 µM, respectively.

Consider `NC(=O)OCC(COc1ccc(Cl)cc1)OC(=O)c1cc([N+](=O)[O-])cc([N+](=O)[O-])c1` (centres undefined), for which the TGI in assay [1], in assay [2], in assay [3], in assay [4], in assay [5] and in [6] was > 100 µM throughout. The TGI in [7], in assay [8] and in assay [9] was > 100 µM each time.

Turning to `COC(=O)C1CCC[C@H]2C(CO)=C(C)C(=O)[C@@H]12` (some centres undefined), the TGI in assay [1], in assay [2], in [3], in assay [4], in [6] and in [7] was > 100 µM each time. The TGI in [8] and in assay [9] was > 100 µM each time.

As to `N#Cc1nc(Nc2ccc(Cl)cc2)sc1N`, the TGI in assay [1] was 83.2 µM; in assay [2], > 51.9 µM; in [3] it was > 71.7 µM; in assay [4] it was 11.3 µM; in assay [5], > 61.8 µM; in [6], > 79.4 µM. For the same compound, the figures for the TGI in assay [7], in [8] and in [9] were > 65.6 µM, 47.3 µM and 31.1 µM, respectively.

With `N#CC(C#N)=Cc1ccc(Oc2ccccc2)cc1`, the TGI was > 100 µM in [1]; 56.1 µM in assay [2]; > 72.8 µM in assay [3]; 61.6 µM in assay [4]; > 100 µM in assay [5]; 73.7 µM in assay [6]. The TGI in assay [7] is 57.3 µM; in assay [8], > 55.7 µM; in [9], > 71.3 µM.

For the compound `Cc1ccc(S(=O)(=O)NC(=O)C#CCOC2CCCCO2)cc1` (centres undefined), the TGI in assay [1], in [2], in [3], in [5], in [6] and in assay [7] was > 100 µM in each case. Further, the TGI in assay [8] and in [9] was > 100 µM throughout.

For `O=C(NCCCCCCNC(=O)NC1OCC(O)C(O)C1O)NC1OCC(O)C(O)C1O` (centres undefined), the TGI in assay [1], in assay [2], in assay [3], in assay [4], in assay [5] and in assay [6] was > 100 µM each time. Moreover, the TGI in assay [7] and in [8] was > 100 µM throughout.

On to `COc1cc2c3c(c1OCc1ccccc1)NCCC3NCC2` (centres undefined), for which the TGI in assay [1], in [2], in [3], in assay [4], in assay [5] and in assay [6] was > 100 µM in each case. Besides, the TGI in [7] and in [9] was > 100 µM in each case.

Turning to `CC1OC(n2cc(I)c(=O)[nH]c2=O)C=CC1=O` (centres undefined), the TGI in assay [1] stood at 32.3 µM; in assay [2], 30.6 µM; in assay [3], 32.3 µM; in [5] it was 31.5 µM; in assay [6], 30.8 µM; in assay [7], 38.7 µM. Further, the TGI in [8] is 32.4 µM; in assay [9] it was 27.8 µM.

Regarding `C[C@]12CC/C(=N\OC(=O)Nc3ccccc3)C=C1CC[C@@H]1C2CC[C@@]2(C)C1CC[C@@H]2OC(=O)Nc1ccccc1` (some centres undefined), the TGI in assay [1], in [2], in assay [5], in assay [6], in assay [7] and in [8] was > 100 µM each time.

With `O=C1C(Cl)=C(Nc2cccc(O)c2)C(=O)N1c1ccc(Cl)cc1Cl`, the GI50 was 57.3 µM in assay [1]; 35.1 µM in [2]; 13.8 µM in assay [4]; 28 µM in [6]; 7.55 µM in [7]; 35 µM in assay [8]. Besides, the TGI in [1] was > 100 µM; in [2], > 100 µM; in assay [4], 32.9 µM; in assay [6], 64.2 µM; in assay [7], 30.7 µM; in assay [8], 72.5 µM.

Regarding `N#CC(C(=O)C(=O)Nc1ccc(Cl)c(Cl)c1)c1ccc(Cl)cc1` (centres undefined), the TGI in [1] is > 100 µM; in assay [2], > 100 µM; in assay [3], > 100 µM; in assay [4], 65.5 µM; in assay [5] it was > 100 µM; in [6], > 100 µM. Moreover, the TGI in [7], in [8] and in assay [9] was > 100 µM throughout.

For `CCCCCCCCCCCCCC(=O)OC1C(CO)OC(=O)C1O` (centres undefined), the TGI in assay [1], in [2], in assay [5], in [6], in assay [7] and in assay [8] was > 100 µM each time. Moreover, the TGI in assay [9] is > 100 µM.

`COc1cccc(N2C(=O)[C@H]3[C@H]4CC(C(C)(C)C)CC[C@H]4c4c([nH]c5ccccc45)[C@H]3C2=O)c1` (some centres undefined): the TGI was determined as 40.6 µM in [1]; 92.1 µM in assay [2]; 40.3 µM in assay [3]; 45.7 µM in assay [4]; 36.2 µM in assay [5]; 29.7 µM in assay [6]. The figures for the TGI in assay [7], in assay [8] and in assay [9] were 35 µM, 40.3 µM and 48.6 µM, respectively.

Take `CSC1CC2C(CC1(C)SC)C2(C)C` (centres undefined): the TGI was > 100 µM in assay [1]; > 100 µM in assay [2]; 73.1 µM in assay [3]; > 100 µM in [4]; > 100 µM in assay [5]; > 100 µM in [6]. The results for the TGI in assay [7], in assay [8] and in assay [9] were 93.4 µM, 56.8 µM and 86.9 µM, respectively.

As for `O=C(CC(=O)c1cccc([N+](=O)[O-])c1)C(=O)Nc1nc([N+](=O)[O-])cs1`, the TGI in assay [1], in assay [2], in assay [3], in assay [4], in [5] and in assay [6] was > 100 µM each time. Moreover, the TGI in assay [7], in assay [8] and in assay [9] was > 100 µM each time.

Take `COc1ccc2c([nH]c3cc(O)c(C)cc32)c1CC=C(C)C`: the TGI is > 25 µM in assay [2]; > 25 µM in assay [3]; 17.3 µM in [4]; 12.4 µM in [5]; 10.4 µM in assay [6]; > 25 µM in [7]. The TGI in assay [8] is > 25 µM. In [4], the GI50 was 5.92 µM.

In the case of `COc1cc2c(cc1OC)C1(c3ccccc3)ON=C(c3ccccc3)N1CS2` (centres undefined), the TGI in [1], in [2], in assay [3], in assay [4], in assay [5] and in assay [7] was > 100 µM in each case. Moreover, the TGI in [8] and in [9] was > 100 µM each time.

As to `[O]=[W](=[O])([OH])[OH]`, the GI50 in assay [2], in assay [3], in [4], in assay [5], in [6] and in [7] was > 100 µM in each case. Moreover, the GI50 in assay [8] and in [9] was > 100 µM in each case. In addition, the TGI in assay [2], in assay [3], in assay [4], in assay [5], in assay [6] and in assay [7] was > 100 µM each time. In addition, the TGI in assay [8] and in assay [9] was > 100 µM throughout.

For the compound `Cc1ccc(C(O)/C(=N/N)c2nc3ccc([N+](=O)[O-])cc3[nH]c2=O)cc1` (centres undefined), the TGI in assay [2], in assay [3], in assay [4], in assay [5], in assay [6] and in assay [7] was > 100 µM throughout. The TGI in assay [8] and in [9] was > 100 µM throughout.

Consider `CC(=O)O[C@]12CCCCC1C1(O)C(O)CCCC[C@H]12` (some centres undefined), for which the TGI in assay [1], in assay [2], in assay [3], in assay [4], in assay [6] and in [7] was > 100 µM each time. The TGI in [8] and in assay [9] was > 100 µM each time.

In the case of `CO[C@]12CCC(=O)N1C=Cc1c2[nH]c2ccccc12`, the TGI in [1], in assay [2], in assay [3], in assay [5], in [6] and in [7] was > 100 µM in each case. Besides, the TGI in assay [9] is > 100 µM.
